Data: article PMC4234445 (ACS Medicinal Chemistry Letters, 2014)
Entries after “also recorded” stand apart in the source; their conditions may differ.

Assays:
[1] = test system: MV-4;11 (FLT3-ITD) cells; assay: CellTiter-Blue cell viability assay in MV-4; format: cell-based, human
[2] = test system: pSTAT3; assay: Western blot of pSTAT3 in MDA-MB-231 cells; format: cell-based
[3] = test system: MYC; assay: Western blot of STAT5 transcriptional target MYC in K562 cells; format: cell-based, human; conditions: 5 h
[4] = test system: healthy human CD34+ umbilical cord cells; assay: Cell viability in healthy human CD34+ umbilical cord cells; format: cell-based
[5] = test system: K562 cells; assay: Western blot of apoptosis markers; format: cell-based, human; conditions: 24 h, 15 μM
[6] = test system: MCL-1; assay: Western blot of STAT5 transcriptional target MCL-1 in K562 cells; format: cell-based, human; conditions: 24 h, 15 μM
[7] = test system: phosphorylated STAT5 (Y694); assay: Western blot of phosphorylated STAT5; format: cell-based, human; conditions: K562 cells, 5 h treatment
[8] = test system: JAK1/2, ABL, and FLT-3; assay: DiscoveRx KINOMEscan, upstream STAT5 activating kinases; format: binding; conditions: 5 μM

CC(C)(C)c1cc(CN(C(=O)CN(Cc2ccc(Cl)cc2)S(=O)(=O)c2c(F)c(F)c(F)c(F)c2F)c2ccc(C(=O)O)c(O)c2)cc(C(C)(C)C)c1 [13a]
cell viability of MV4-11 cells ([1]; 10 μM): abolished
IC50 ([1]; Homo sapiens, MV4-11, 72 h, read-out: IC50, cell viability MV4;11): 3.5 µM
pSTAT3 inhibition ([2]; MDA-MB-231, doses corresponding to pSTAT5 inhibition in leukemic cell line): not inhibited
effect on pSTAT3 ([2]; MDA-MB-231 cells, up to 20 μM): no effect
MYC (c-Myc) expression [3]: dose-dependent decreases; also recorded: Knockdown
difference in sensitivity CD34+ vs MV4-11 (therapeutic window) [4]: approximate order of magnitude
cell viability of healthy CD34+ cells ([4]; 10 μM): little reduction in cell viability; also recorded: limited effect on cell viability
cell death / apoptosis (cleaved PARP-1, Caspase-3) [5]: undergo cell death; also recorded: Initiation of apoptosis
MCL-1 expression [6]: complete knockdown
concentration at which pSTAT5 is ablated [7]: above 10 μM
pSTAT5 (Y694) levels [7]: decreased pSTAT5 in a dose dependent manner
effect against upstream STAT5 activating kinases JAK1/2, ABL, FLT-3 [8]: negligible effects
